Data set [1] in a line: Equivalence titration (0.5 milliequivalent) of reaction products with 0.1N sodium hydroxide. In kind it is physicochemical. As to conditions: equivalent titration; for pKa: volume adjusted to 0.5 milliequivalent; for Capacity (buffer capacity): titrant required to raise the pH one unit from the pKa value. The method, then: (§1) Reaction products of boric acid and α-hydroxy carboxylic acids were prepared by diluting pre-made stock solution of 0.4M boric acid and 0.4M, 0.6M, and 0.8M α-hydroxy carboxylic acid. [table] Each reaction mixture was allowed to mix for a minimum of two hours before subsequent titration with 0.1N certified sodium hydroxide solution. Two sets of titrations were performed. The first set of titrations, molar titration, 5.0 ml of each solution is titrated to accurately determine end point and the pKa and pH at half of the end point. The second set of titrations, equivalence titration, solution volumes were adjusted to 0.5 milliequivalent and the buffer capacity determined. For simplicity, buffer capacity is reported as the milliequivalents of titrant required to raise the pH one unit from the pKa value. An exception was made for the 1:3 test ratio in which free α-hydroxy acid and the boric acid ester complex could not be distinguished between.

The nature of data set [2]: Molar titration of boric acid/α-hydroxy acid reaction products with 0.1N sodium hydroxide. In kind it is physicochemical. The settings on record: for pKa: 5.0 ml solution, pH at half of the end point; for Capacity (buffer capacity): titrant required to raise the pH one unit from the pKa value. Here is the method:
as §1

What is called pKa is the negative logarithm of the acid dissociation constant. With `O=C(O)CC(O)(CC(=O)O)C(=O)O` [Citric Acid 0, Citric Acid], in data set [1], the pKa stood at 4.3 and the “Capacity (buffer capacity)” value was 39 milliequivalents. Also, in data set [2], the pKa is 4.3 and the “Capacity (buffer capacity)” value was 39 milliequivalents.

Consider `CC(O)C(=O)O` (stereo not drawn) [Lactic Acid 0, Lactic Acid], for which, in data set [1], the pKa was 4 and the “Capacity (buffer capacity)” value was found to be 11 milliequivalents. For the same compound, in data set [2], the pKa was 4 and the “Capacity (buffer capacity)” value stood at 11 milliequivalents.

As for `O=C(O)CO` [Glycolic Acid 0, Glycolic Acid], in data set [1], the pKa was 3.9 and the “Capacity (buffer capacity)” value is 13 milliequivalents. For the same compound, in data set [2], the pKa was 3.9 and the “Capacity (buffer capacity)” value is 13 milliequivalents.
